Counter-ions that a name gives are not always drawn.

The target in the first experiment is T1, full-length SHP2 (His6-tagged SHP2(2-527)) (Homo sapiens, UniProt Q06124).
T1 construct: His6-tagged SHP2(2-527); His6; made in house; host or cells: E. coli
T1 sequence (Q06124 2-527): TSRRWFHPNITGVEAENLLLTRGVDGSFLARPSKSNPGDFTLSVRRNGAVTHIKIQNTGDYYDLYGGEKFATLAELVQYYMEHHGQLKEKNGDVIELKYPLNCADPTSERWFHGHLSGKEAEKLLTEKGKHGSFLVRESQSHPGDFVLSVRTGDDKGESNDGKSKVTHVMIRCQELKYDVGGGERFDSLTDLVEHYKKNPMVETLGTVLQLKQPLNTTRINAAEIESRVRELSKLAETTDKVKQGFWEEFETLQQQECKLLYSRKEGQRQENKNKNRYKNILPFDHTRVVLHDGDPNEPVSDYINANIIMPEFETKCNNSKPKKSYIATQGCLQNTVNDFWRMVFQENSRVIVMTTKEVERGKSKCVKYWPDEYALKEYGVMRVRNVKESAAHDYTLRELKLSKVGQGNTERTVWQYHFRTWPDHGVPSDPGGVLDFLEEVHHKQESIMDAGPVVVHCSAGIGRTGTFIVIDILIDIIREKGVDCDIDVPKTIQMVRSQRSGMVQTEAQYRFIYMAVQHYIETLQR
Nature of the experiment: SHP2 Enzymatic Assay (fluorescence intensity kinetic assay, DiFMUP hydrolysis). Type of experiment: biochemical.
Conditions: not given
The procedure, abridged:
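1 nM His6-SHP2(2-527), activated by 1 μM bis-phosphopeptide, hydrolysed 50 μM DiFMUP in 25 mM HEPES pH 7.4 with 1 mM DTT, 50 mM KCl and 2% DMSO. DiFMU fluorescence (Ex 355/Em 460 nm) was read kinetically for 15 min at ambient temperature.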
As for `CN(C)C1C[C@@H]2CC[C@@H](C1)N2c1cnc2nc(Sc3ccnc(N)c3Cl)ccc2n1` (stereo partly drawn) [Example 92, (1R,3s,5S)-8-(6-((2-amino-3-chloropyridin-4-yl)thio)pyrido[2,3-b]pyrazin-2-yl)-N,N-dimethyl-8-azabicyclo[3.2.1]octan-3-amine], inhibition was half-maximal at 66 nM (IC50).
With `CNC1C[C@@H]2CC[C@@H](C1)N2c1cnc2nc(Sc3ccnc(N)c3Cl)ccc2n1` (stereo partly drawn) [Example 93, (1S,3s,5S)-8-(6-((2-amino-3-chloropyridin-4-yl)thio)pyrido[2,3-b]pyrazin-2-yl)-N-methyl-8-azabicyclo[3.2.1]octan-3-amine], the IC50 was found to be 49 nM.
`Cc1nccc(Sc2ccc3nc(N4CCC(C)(N)CC4)cnc3n2)c1Cl` [Example 94, 1-(6-((3-chloro-2-methylpyridin-4-yl)thio)pyrido[2,3-b]pyrazin-2-yl)-4-methylpiperidin-4-amine] displayed an IC50 of 49 nM.
The same measure, in the same setting: in the case of `CC1(N)CCN(c2cnc3nc(Sc4cccnc4N)ccc3n2)CC1` [Example 95, 3-((2-(4-amino-4-methylpiperidin-1-yl)pyrido[2,3-b]pyrazin-6-yl)thio)pyridin-2-amine] it was 4720 nM; in that of `Cc1nc(Cl)ccc1Sc1ccc2nc(N3CCC(C)(N)CC3)cnc2n1` [Example 96, 1-(6-((6-chloro-2-methylpyridin-3-yl)thio)pyrido[2,3-b]pyrazin-2-yl)-4-methylpiperidin-4-amine], 503 nM; in that of `CC1(N)CCN(c2cnc3nc(Sc4ccc(N)nc4Cl)ccc3n2)CC1` [Example 97, 5-((2-(4-amino-4-methylpiperidin-1-yl)pyrido[2,3-b]pyrazin-6-yl)thio)-6-chloropyridin-2-amine], 176 nM.
Same read-out and setting: under `Cc1ccc(Sc2ccc3nc(N4CCC(C)(N)CC4)cnc3n2)c(Cl)n1` [Example 98, 1-(6-((2-chloro-6-methylpyridin-3-yl)thio)pyrido[2,3-b]pyrazin-2-yl)-4-methylpiperidin-4-amine] stands 169 nM.
Same read-out and setting: under `Nc1nccc(Sc2ccc3nc(N4CC5CCCC(N)C5C4)cnc3n2)c1Cl` (stereo not shown) [Example 99, 2-(6-((2-amino-3-chloropyridin-4-yl)thio)pyrido[2,3-b]pyrazin-2-yl)octahydro-1H-isoindol-4-amine] stands 157 nM; under `Nc1nccc(Sc2ccc3nc(N4CC5CCC(N)C5C4)cnc3n2)c1Cl` (stereo not shown) [Example 100, 2-(6-((2-amino-3-chloropyridin-4-yl)thio)pyrido[2,3-b]pyrazin-2-yl)octahydrocyclopenta[c]pyrrol-4-amine], 121 nM; under `NCC1CC2CCCC(C1)N2c1cnc2nc(Sc3ccnc(N)c3Cl)ccc2n1` (stereo not shown) [Example 101, 4-((2-(3-(aminomethyl)-9-azabicyclo[3.3.1]nonan-9-yl)pyrido[2,3-b]pyrazin-6-yl)thio)-3-chloropyridin-2-amine], 56 nM.
For the compound `NCC1CC2CCC(C1)N2c1cnc2nc(Sc3ccnc(N)c3Cl)ccc2n1` (stereo not shown) [Example 102, 4-((2-(3-(aminomethyl)-8-azabicyclo[3.2.1]octan-8-yl)pyrido[2,3-b]pyrazin-6-yl)thio)-3-chloropyridin-2-amine], the midpoint of inhibition, the IC50, lay at 44 nM.
Still for that read-out and setting: under `Nc1nccc(Sc2ccc3nc(N4CCC5NCC5C4)cnc3n2)c1Cl` (stereo not shown) [Example 103, 4-((2-(3,7-diazabicyclo[4.2.0]octan-3-yl)pyrido[2,3-b]pyrazin-6-yl)thio)-3-chloropyridin-2-amine] stands 79 nM.
The same measure, in the same setting: in the case of `Nc1nccc(Sc2ccc3nc(N4CCC(N)(C(F)(F)F)CC4)cnc3n2)c1Cl` [Example 104, 4-((2-(4-amino-4-(trifluoromethyl)piperidin-1-yl)pyrido[2,3-b]pyrazin-6-yl)thio)-3-chloropyridin-2-amine] it was 3350 nM; in that of `C[C@@H]1OCC2(CCN(c3cnc4nc(Sc5ccc(N)nc5Cl)ccc4n3)CC2)[C@@H]1N` [Example 105, (3S,4S)-8-(6-((6-amino-2-chloropyridin-3-yl)thio)pyrido[2,3-b]pyrazin-2-yl)-3-methyl-2-oxa-8-azaspiro[4.5]decan-4-amine], 82 nM; in that of `C[C@@H]1OCC2(CCN(c3cnc4nc(Sc5ccnc(N6CC[C@@H](CO)C6)c5Cl)ccc4n3)CC2)[C@@H]1N` [Example 106, ((R)-1-(4-((2-((3S,4S)-4-amino-3-methyl-2-oxa-8-azaspiro[4.5]decan-8-yl)pyrido[2,3-b]pyrazin-6-yl)thio)-3-chloropyridin-2-yl)pyrrolidin-3-yl)methanol], 101 nM.
Still for that read-out and setting: in the case of `C[C@@H]1OCC2(CCN(c3cnc4nc(Sc5ccnc(N6CC[C@@H](O)C6)c5Cl)ccc4n3)CC2)[C@@H]1N` [Example 107, (R)-1-(4-((2-((3S,4S)-4-amino-3-methyl-2-oxa-8-azaspiro[4.5]decan-8-yl)pyrido[2,3-b]pyrazin-6-yl)thio)-3-chloropyridin-2-yl)pyrrolidin-3-ol] it was 120 nM.
In turn, `C[Si]1(CN)CCN(c2cnc3nc(Sc4ccnc(N)c4Cl)ccc3n2)CC1` [Example 109, 4-((2-(4-(Aminomethyl)-4-methyl-1,4-azasilinan-1-yl)pyrido[2,3-b]pyrazin-6-yl)thio)-3-chloropyridin-2-amine] gave an IC50 of 27 nM.
Same read-out and setting: under `N[C@@H]1c2ccccc2CC12CCN(c1cnc3nc(Sc4ccnc(NCCO)c4Cl)ccc3n1)CC2` [Example 110, (S)-2-((4-((2-(1-amino-1,3-dihydrospiro[indene-2,4′-piperidin]-1′-yl)pyrido[2,3-b]pyrazin-6-yl)thio)-3-chloropyridin-2-yl)amino)ethan-1-ol] stands 44 nM.
`N#Cc1ccc2c(c1)[C@H](N)C1(CCN(c3cnc4nc(Sc5ccnc(N)c5Cl)ccc4n3)CC1)C2` [Example 111, (R)-1-amino-1′-(6-((2-amino-3-chloropyridin-4-yl)thio)pyrido[2,3-b]pyrazin-2-yl)-1,3-dihydrospiro[indene-2,4′-piperidine]-6-carbonitrile] came in with an IC50 of 34 nM.
On the same count and under the same terms, under `Cc1ccc2c(n1)CC1(CCN(c3cnc4nc(Sc5ccnc(N)c5Cl)ccc4n3)CC1)[C@H]2N` [Example 113, (R)-1′-(6-((2-amino-3-chloropyridin-4-yl)thio)pyrido[2,3-b]pyrazin-2-yl)-2-methyl-5,7-dihydrospiro[cyclopenta[b]pyridine-6,4′-piperidin]-5-amine] stands 53 nM.
Turning to `Nc1ncc(Sc2ccc3nc(N4CCC5(CC4)Cc4ccccc4[C@H]5N)cnc3n2)c(Cl)c1Cl` [Example 119, (S)-1′-(6-((6-amino-4,5-dichloropyridin-3-yl)thio)pyrido[2,3-b]pyrazin-2-yl)-1,3-dihydrospiro[indene-2,4′-piperidin]-1-amine], the IC50 worked out at 39 nM.
Still for that read-out and setting: in the case of `Cc1nc2nc(Sc3cccc(Cl)c3Cl)ccc2nc1N1CCC(C)(N)CC1` [Example 120, 1-(6-((2,3-dichlorophenyl)thio)-3-methylpyrido[2,3-b]pyrazin-2-yl)-4-methylpiperidin-4-amine] it was 633 nM.
With `C[C@@H]1C[C@H](N)CCN1c1cnc2nc(Sc3ccnc(N)c3Cl)ccc2n1` [Example 121, 4-((2-((2R,4R)-4-amino-2-methylpiperidin-1-yl)pyrido[2,3-h]pyrazin-6-yl)thio)-3-chloropyridin-2-amine], the IC50 was determined as 99 nM.
Same read-out and setting: in the case of `C[C@@H]1C[C@@H](N)CCN1c1cnc2nc(Sc3ccnc(N)c3Cl)ccc2n1` [Example 122, 4-((2-((2R,4S)-4-amino-2-methylpiperidin-1-yl)pyrido[2,3-b]pyrazin-6-yl)thio)-3-chloropyridin-2-amine dihydrochloride] it was 64 nM; in that of `N[C@@H]1c2ccccc2CC12CCN(c1cnc3nc(Oc4ccc(F)cc4)ccc3n1)CC2` [Example 123, (S)-1′-(6-(4-fluorophenoxy)pyrido[2,3-b]pyrazin-2-yl)-1,3-dihydrospiro[indene-2,4′-piperidin]-1-amine], 21 nM.
As to `Nc1nccc(Sc2ccc3nc(N4CC5(Cc6ccccc6[C@H]5N)C4)cnc3n2)c1Cl` [Example 124, (R)-1-(6-((2-amino-3-chloropyridin-4-yl)thio)pyrido[2,3-b]pyrazin-2-yl)-1′,3′-dihydrospiro[azetidine-3,2′-inden]-1′-amine], half-maximal inhibition (IC50) required 52 nM.
In turn, `Cc1cccc2c1CC1(CCN(c3cnc4nc(Sc5ccnc(N)c5Cl)ccc4n3)CC1)[C@@H]2N` [Example 126, (S)-1′-(6-((2-amino-3-chloropyridin-4-yl)thio)pyrido[2,3-b]pyrazin-2-yl)-4-methyl-1,3-dihydrospiro[indene-2,4′-piperidin]-1-amine] yielded an IC50 of 30 nM.
With `N[C@@H]1c2ccccc2CC12CCN(c1cnc3nc(Sc4cnc5ccc(Cl)cn45)ccc3n1)CC2` [Example 127, (S)-1′-(6-((6-chloroimidazo[1,2-a]pyridin-3-yl)thio)pyrido[2,3-b]pyrazin-2-yl)-1,3-dihydrospiro[indene-2,4′-piperidin]-1-amine], the IC50 is 82 nM.
Same read-out and setting: under `Nc1nccc(Sc2ccc3nc(N4CCC(N)(CCO)CC4)cnc3n2)c1Cl` [Example 128, 2-(4-amino-1-(6-((2-amino-3-chloropyridin-4-yl)thio)pyrido[2,3-b]pyrazin-2-yl)piperidin-4-yl)ethan-1-ol] stands 100 nM.

The same experiment, now with this note: full-length SHP2 with 1 μM activating peptide, 50 μM DiFMUP; single assay or mean of multiple assays; read-out: Biological Example 1 IC50.
Consider `Cc1ccc2c(n1)CC1(CCN(c3cnc4nc(Sc5ccnc(N)c5Cl)ccc4n3)CC1)[C@@H]2N` [Example 114, (S)-1′-(6-((2-amino-3-chloropyridin-4-yl)thio)pyrido[2,3-b]pyrazin-2-yl)-2-methyl-5,7-dihydrospiro[cyclopenta[b]pyridine-6,4′-piperidin]-5-amine], for which the IC50 stood at 40 nM.
With `COc1cnc2c(c1)[C@@H](N)C1(CCN(c3cnc4nc(Sc5ccnc(N)c5Cl)ccc4n3)CC1)C2` [Example 115, (S)-1′-(6-((2-amino-3-chloropyridin-4-yl)thio)pyrido[2,3-b]pyrazin-2-yl)-3-methoxy-5,7-dihydrospiro[cyclopenta[b]pyridine-6,4′-piperidin]-5-amine], the IC50 amounted to 60 nM.

Broadly, the IC50 is the concentration that gives 50% inhibition.

The values above are taken from patent US12187721B2, “Protein tyrosine phosphatase inhibitors” (Array BioPharma Inc., priority 2018, dated 2025).
